Test results from PMC12921516 (ACS Bio & Med Chem Au, 2025).

Columns and labels:
Assay type in all cases: cell-based, human
[1] = test system: HepG2 cells; experiment: GC-MS untargeted metabolomic analysis; conditions: HepG2, 30 μM for 24 h, vs DMSO
Experimental: HepG2 cells are commonly utilized in metabolomics to study alterations in metabolic pathways, such as glycolysis and lipid metabolism, when exposed to various substances, − due to their ability to sustain liver-specific functions. To explore the metabolic changes induced by the 4b and 5g derivatives in HepG2 cells, an untargeted metabolomic analysis using GC-MS was carried out. […] This vitamin is essential for synthesizing coenzyme A (CoA), which in turn produces acetyl-CoA and succinyl-CoA, all of which are crucial for ATP production in the tricarboxylic acid (TCA) cycle. […] On the other hand, our findings indicate that 5g leads to a reduction in intracellular citrate levels, which may promote glycolysis and diminish gluconeogenesis similarly to metformin. Consequently, this could potentially lower hepatic glucose output. In summary, the increased intracellular levels of pantothenic acid and glycine, combined with the lowered citrate levels achieved by 5g, may play a significant role in improving insulin resistance and T2DM.
5 GC-MS-based untargeted metabolomic analysis of HepG2. (a) Heatmap analysis of HepG2 cells treated with DMSO (D, vehicle), 4b, or 5g for 24 h. (b) Principal Component Analysis (PCA) of untargeted metabolomic analysis of HepG2 treated with DMSO (vehicle), 4b, and 5g at 30 μM for 24 h (c). Statistically significant metabolites altered between the groups. Graphs were constructed using sum-normalized peak height values. Asterisks indicate statistical significance according to the Dunn test, with p-values denoted as follows: *p < 0.05, **p < 0.01. Created in BioRender. Matuz Mares, D. (2025) https://BioRender.com/hpj5plg.
The treated HepG2 cells were washed twice with 1 mL of PBS, and the liquid was entirely removed by pipetting. Posteriorly, 1 mL of ice-cold methanol containing 2.5 μL of internal standard, consisting of tridecanoic acid (0.1 mg/mL), was added, and the mixture was bath sonicated for 2 min. All the extract was recovered in microcentrifuge tubes, thoroughly vortexed, and then centrifuged for 10 min at 15,000 rpm at 4 °C. The supernatant was recovered and dried overnight using a SpeedVac (SPD 121P, Thermo Scientific). 40 μL of 20 mg/mL […] was added under nitrogen flow and incubated for 90 min at 37 °C. Posteriorly, the tube was centrifuged, and the supernatant was fully recovered and transferred to an insert tube with 40 μL of MBSTFA 1% TMCS, vortexed and incubated for 30 min. One μL of this extract was injected into a GC/MS (Agilent 5977A/7890B, Santa Clara, CA, USA) system with HP5-MS (Agilent) column with helium 99.9999% purity under the following parameters: splitless, flow 1 mL/min, electron ionization, with a range of 50–500 m/z. The chromatography consisted of a 1 min hold at 60 °C, followed by a ramp of 10 °C/min to 325 °C, and a final hold time of 10 min. Raw data was transformed with Agilent Mass Hunter to mz data, and deconvolution and alignment were performed with Mzmine2.0. Univariate and multivariate analyses were performed with Metaboanalyst 6.0 and GraphPad.

[2] = test system: HepG2 cells; experiment: Western blotting, HepG2 normal model; conditions: 24 h
Experimental: (§1) HepG2 cells were obtained directly from ATCC (HB-8065) and cultured in DMEM with low glucose, supplemented with fetal bovine serum, 100 U/mL penicillin G, and […] streptomycin. The media was freshly prepared and sterilized by filtration. Cells were maintained with a maximum of 10 passages before being discarded. For cell counting, the cells were washed twice with phosphate-buffered saline (PBS), trypsinized, and counted using a Neubauer chamber. For the insulin-resistant model, 75,000 cells per well were seeded in 6-well plates at 37 °C in 5% CO2 and cultured for 72 h. Subsequently, insulin (0.1 μM) was added to induce insulin resistance for 24 h. After this period, inhibitors were incubated for 24 h, followed by a final 30 min insulin stimulation (0.1 μM) before protein extraction. For the normal model, 75,000 cells per well were seeded in 6-well plates at 37 °C in 5% CO2 and cultured for 96 h. After that, the cells were incubated with the inhibitors for 24 h, followed by protein extraction.
(§2) Treated cells were washed twice with 1 mL of PBS, and proteins were extracted using 300 μL of a buffer solution containing 10% sodium deoxycholate in 10% TEAB, supplemented with a protease and phosphatase inhibitor cocktail. The extracts were heated at 80 °C for 5 min and dissociated by repeated passages through an insulin syringe. The cell extracts were centrifuged at 15,000 rpm for 15 min at 4 °C, and the supernatant was collected. Protein quantification was performed using the bicinchoninic acid assay, and aliquots were prepared for Western blotting. SDS-PAGE was conducted, and proteins were transferred onto a nitrocellulose membrane. The membrane was blocked with 10% skim milk in TBST for 1 h and incubated overnight with primary antibodies (1:400 dilution). Secondary antibodies conjugated to horseradish peroxidase were diluted 1:2,000, and the membranes were incubated for 1 h at room temperature. Blots were visualized using the ChemiDoc MP (Bio-Rad), and densitometric analysis was performed with ImageJ (U.S. National Institutes of Health). Statistical analyses were conducted using GraphPad Prism 8.0.
compounds at 24 h of treatment. β-actin was employed as loading control. b) Densitometric analysis of western blot images
employing ImageJ analysis software. Bar graphs represent the mean ± SEM of normalized values. The control levels were set to
1. Asterisks indicate statistical significance according to the Dunn test. p* < 0.05
(§3) (1 picture or pasted object on this page, not shown here)

[3] = test system: insulin-resistant HepG2 cells; experiment: Western blotting, insulin-resistant HepG2 model; conditions: 24 h
Experimental: as §1, §2
resistance model in HepG2 cells . a) Western blotting representative analysis (n=3) of PTP1B, p -AKT, p-IRS1 and p-STAT3 levels
of HepG2 cells treated with the compounds at 24 h of treatment. β-actin was employed as loading control. b) Densitometric
analysis of western blot images employing ImageJ analysis software. Bar graphs represent the mean ± SEM of normalized values.
The control levels were set to 1. Asterisks indicate statistical significance according to the Dunn test. p* < 0.05.
as §3

## CC1(C)c2[nH]c3ccc(OC(F)F)cc3c2C[C@]2(C)[C@H]3C(=O)C=C4[C@@H]5C[C@@](C)(C(=O)O)CC[C@]5(C)CC[C@@]4(C)[C@]3(C)CC[C@@H]12 [compound 4b, (20β)-5′-(Difluoromethoxy)-11-oxo-1′H-oleana-2,12-dieno[3,2-b]indol-29-oic Acid]
[1]
  glycine levels: not statistically significant
  intracellular fructose levels: not statistically significant
  intracellular glucose levels: not statistically significant
  intracellular palmitic acid levels: significantly reduce
  intracellular stearic acid levels: significantly reduce
  pantothenic acid levels: not statistically significant
[2]
  p-STAT3 levels: only a minor increase

## CC1(C)c2[nH]c3ccc(S(N)(=O)=O)cc3c2C[C@]2(C)[C@H]3C(=O)C=C4[C@@H]5C[C@@](C)(C(=O)O)CC[C@]5(C)CC[C@@]4(C)[C@]3(C)CC[C@@H]12 [compound 4g, (20β)-5′-Sulfamoyl-11-oxo-1′H-oleana-2,12-dieno[3,2-b]indol-29-oic Acid]
[2]
  p-IRS levels: slight but not statistically significant increase
  p-STAT3 levels: slight but not statistically significant increase

## CC1(C)c2c(cnn2-c2ccc(S(N)(=O)=O)cc2)C[C@]2(C)[C@H]3C(=O)C=C4[C@@H]5C[C@@](C)(C(=O)O)CC[C@]5(C)CC[C@@]4(C)[C@]3(C)CC[C@@H]12 [compound 5g, (20β)-11-Oxo-2′-(4-sulfamoylphenyl)-2′H-oleana-2,12-dieno[3,2-c]pyrazol-29-oic Acid]
[3]
  p-IRS levels: tendency to increase p-IRS levels
[1]
  glycine levels: markedly increasing
  intracellular citrate levels: reduction
  intracellular fructose levels: significantly lowers
  intracellular glucose levels: significantly lowers
  pantothenic acid levels: significant increase
